Here are results for 24 compounds from ChEMBL document CHEMBL1133184, “SAR of 9-amino-1,2,3,4-tetrahydroacridine-based acetylcholinesterase inhibitors: synthesis, enzyme inhibitory activity, QSAR, and structure-based CoMFA of tacrine analogues” (J Med Chem, 2000).

As a reminder, the IC50 is the midpoint of a concentration-inhibition curve. A high value points to weaker potency in that assay.

For test [1], the target named is T1, Acetylcholinesterase (Homo sapiens, UniProt P22303).
Description: Experimental pIC50 values for the inhibition of acetylcholinesterase
The target of test [2] is T1, Acetylcholinesterase. The source holds these as a separate data set.
Description: Inhibitory activity against human erythrocyte acetylcholinesterase

T1 sequence (P22303 whole entry): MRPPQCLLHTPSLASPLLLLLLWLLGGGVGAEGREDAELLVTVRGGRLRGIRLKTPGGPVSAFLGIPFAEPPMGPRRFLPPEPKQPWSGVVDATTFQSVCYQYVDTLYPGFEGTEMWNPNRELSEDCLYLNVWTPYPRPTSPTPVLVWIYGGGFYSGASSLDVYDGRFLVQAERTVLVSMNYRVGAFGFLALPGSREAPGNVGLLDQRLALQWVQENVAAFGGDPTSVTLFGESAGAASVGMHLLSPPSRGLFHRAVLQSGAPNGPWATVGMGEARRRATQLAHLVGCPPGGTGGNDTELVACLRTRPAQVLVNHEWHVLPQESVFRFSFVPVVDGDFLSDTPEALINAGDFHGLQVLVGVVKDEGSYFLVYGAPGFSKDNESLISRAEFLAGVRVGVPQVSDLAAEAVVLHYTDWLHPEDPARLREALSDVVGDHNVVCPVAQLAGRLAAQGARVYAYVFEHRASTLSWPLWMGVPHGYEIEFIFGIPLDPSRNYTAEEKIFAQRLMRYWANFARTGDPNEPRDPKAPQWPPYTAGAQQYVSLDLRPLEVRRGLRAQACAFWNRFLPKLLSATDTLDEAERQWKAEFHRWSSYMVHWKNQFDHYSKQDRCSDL

As to `CCCCCCCNc1c2c(nc3cc(C)ccc13)CCCC2`, the IC50 against Acetylcholinesterase [1] is 0.129 µM; against Acetylcholinesterase [2] it was 0.13 µM. As to `CCCCCCCNc1c2c(nc3cc([N+](=O)[O-])ccc13)CCCC2`, the 50% inhibitory concentration (IC50) against Acetylcholinesterase [1] is 0.295 µM; against Acetylcholinesterase [2], 0.29 µM. With `Cc1ccc2nc3c(c(NCc4ccccc4)c2c1)CCCC3`, the half-inhibitory concentration (IC50) against Acetylcholinesterase [1] was 3.72 µM; on Acetylcholinesterase [2] it was 3.7 µM. With `CCCCCCCNc1c2c(nc3ccc(C)cc13)CCCC2`, the IC50 against Acetylcholinesterase [1] was 0.389 µM; against Acetylcholinesterase [2] it was 0.39 µM. Regarding `COc1cccc2c1Cc1c-2nc2ccccc2c1N`, the IC50 at Acetylcholinesterase [1] was 1.66 µM. Take `Nc1ccc2nc3c(c(N)c2c1)CCCC3`: the IC50 against Acetylcholinesterase [1] and against Acetylcholinesterase [2] was 3.8 µM throughout. Compound `Nc1c2c(nc3cc(Cl)ccc13)-c1ccccc1C2` had an IC50 on Acetylcholinesterase [1] of 6.61 µM. For `O=[N+]([O-])c1ccc2c(NCc3ccccc3)c3c(nc2c1)CCCC3`, the values for the half-maximal inhibitory concentration (IC50) on Acetylcholinesterase [1] and at Acetylcholinesterase [2] were 4.79 µM and 4.8 µM, respectively.

As for `CCCCCCCNc1c2c(nc3cc(OC)ccc13)CCCC2`, the results for the half-inhibitory concentration (IC50) against Acetylcholinesterase [1] and at Acetylcholinesterase [2] were 0.468 µM and 0.46 µM, respectively.

As for `Nc1c2c(nc3ccc(Cl)cc13)CCCC2`, the concentration for half-maximal inhibition (IC50) on Acetylcholinesterase [1] and on Acetylcholinesterase [2] was 0.55 µM each time. For `Nc1c2c(nc3cc(Cl)c(Cl)cc13)CCCC2`, the results for the IC50 at Acetylcholinesterase [1] and against Acetylcholinesterase [2] were 0.479 µM and 0.47 µM, respectively. As for `Nc1c2c(nc3ccccc13)-c1ccc(F)cc1C2`, the midpoint of inhibition against Acetylcholinesterase [1], the IC50, lay at 0.437 µM. Consider `Nc1c2c(nc3cc(F)ccc13)CCCC2`, for which the IC50 against Acetylcholinesterase [1] was 0.0871 µM; at Acetylcholinesterase [2] it was 0.087 µM. For `Cc1ccc2nc3c(c(N)c2c1)CCCC3`, in that order: 8.13 µM and 8.1 µM. Regarding `CCCCCCCNc1c2c(nc3cc(F)ccc13)CCCC2`, the IC50 was 0.0457 µM against Acetylcholinesterase [1] and 0.045 µM on Acetylcholinesterase [2].

Regarding `CCCCCCCNc1c2c(nc3cc(Cl)ccc13)CCCC2`, the IC50 against Acetylcholinesterase [1] is 0.0132 µM; at Acetylcholinesterase [2], 0.013 µM. `Nc1c2c(nc3cc(Br)ccc13)CCCC2`: on Acetylcholinesterase [2], the IC50 is 0.066 µM. Regarding `COc1ccc2c(N)c3c(nc2c1)CCCC3`, the IC50 against Acetylcholinesterase [1] was 0.355 µM; against Acetylcholinesterase [2], 0.35 µM. For `COc1cc2nc3c(c(N)c2cc1OC)CCCC3`, in that order: 5.13 µM and 5.2 µM. For `Cc1ccc2c(NCc3ccccc3)c3c(nc2c1)CCCC3`, in that order: 0.741 µM and 0.75 µM. For the compound `O=[N+]([O-])c1ccc2nc3c(c(NCc4ccccc4)c2c1)CCCC3`, the concentration for half-maximal inhibition (IC50) against Acetylcholinesterase [1] was 1.58 µM; on Acetylcholinesterase [2], 1.6 µM. For the compound `Clc1ccc2c(NCc3ccccc3)c3c(nc2c1)CCCC3`, the IC50 on Acetylcholinesterase [1] and at Acetylcholinesterase [2] was 0.17 µM each time.

`Nc1c2c(nc3ccc([N+](=O)[O-])cc13)CCCC2`: the IC50 on Acetylcholinesterase [1] was 3.02 µM; at Acetylcholinesterase [2] it was 3 µM. On to `Cc1ccc2c(N)c3c(nc2c1)CCCC3`, for which the IC50 against Acetylcholinesterase [1] and against Acetylcholinesterase [2] was 0.1 µM in each case.
